Experimental data: paper PMC8001472, “Novel Selective IDO1 Inhibitors with Isoxazolo[5,4-d]pyrimidin-4(5H)-one Scaffold” (Pharmaceuticals, 2021)

Experiments:
hIDO2 = molecular target: T1, hIDO2 (Homo sapiens, UniProt Q6ZQW0); assay: hIDO2 inhibitory potency evaluation (fluorescence assay); format: biochemical
T1 construct: purchased Vinci-Biochem
T1 sequence (Q6ZQW0 1-407): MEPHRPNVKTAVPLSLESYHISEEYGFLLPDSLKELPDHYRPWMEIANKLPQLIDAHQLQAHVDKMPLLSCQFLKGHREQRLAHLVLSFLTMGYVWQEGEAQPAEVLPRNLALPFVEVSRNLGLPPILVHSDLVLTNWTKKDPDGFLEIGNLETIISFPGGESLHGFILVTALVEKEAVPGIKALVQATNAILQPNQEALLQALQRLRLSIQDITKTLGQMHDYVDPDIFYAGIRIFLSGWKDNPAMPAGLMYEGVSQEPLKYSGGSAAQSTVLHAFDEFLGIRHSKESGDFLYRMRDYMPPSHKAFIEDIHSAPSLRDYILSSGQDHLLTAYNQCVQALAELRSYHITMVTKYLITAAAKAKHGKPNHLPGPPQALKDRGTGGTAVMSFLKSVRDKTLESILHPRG
Protocol: (§1) Additionally, to determine IDO1 selectivity, all final compounds were assayed for their inhibitory potencies towards hIDO2 and hTDO. For this purpose, two new protocols were developed based on the published fluorescence assay for hIDO1 [25]. Sodium ascorbate, methylene blue, and bovine catalase were used in the same concentrations as for hIDO1. 50 mM phosphate buffers with pH values of 7.5 and 7.0 were used for hIDO2 and hTDO, respectively, as has been already mentioned before. First, the activities of hIDO2 and hTDO were determined at four different concentrations. […] Additionally, the effect of DMSO concentration on enzyme activity was investigated. […] The optimal hIDO2 and hTDO assay concentrations of the substrate L-Trp were determined to be 4 mM and 500 μM, respectively.
Activity of the compounds on hIDO2 was determined according to the previously reported fluorescence protocol for hIDO1 [25] and reported absorbance protocols for hIDO2 [30, 36] with several modifications. Recombinant hIDO2 was purchased from Vinci-Biochem (Vinci-Biochem, Srl, Vinci, Italy), bovine catalase was purchased from Sigma-Aldrich (Sigma-Aldrich, St. Louis, MO, USA). Prior to the measurement of activity for compounds, the enzyme activity was determined and optimal assay enzyme concentration was selected. The amounts of reagents needed to perform the assay were optimized. Briefly, the reagents needed were dissolved in 50 mM potassium phosphate buffer (pH 7.5, 0.01%, v/v Tween 20), the reaction was performed in black 384-well microplates. After the addition of 1 μL of 100 mM sodium ascorbate neutralized with an equimolar amount of 1M NaOH, 1 μL of 100 μM methylene blue, 1 μL of 1 mg/mL bovine catalase, 0.5 μL of DMSO (negative control) or solution of a compound in DMSO, 5 μL of […] hIDO2 and 1.5 μL of 26.7 mM L-Trp were added and the microplate was incubated for 60 min at 37 °C. The reaction was quenched with the addition of 10 μL of 400 mM piperidine solution in MilliQ water and the formation of the examined fluorophore began following incubation at 65 °C for 20 min. The production of NFK-derived fluorophore (λEX = 400 nm, λEM = 500 nm) was measured using a microplate reader (Synergy H4; BioTek Instruments, Inc., Winooski, VT, USA) after 60 min post-incubation at room temperature. In the preliminary testing compounds were tested at 100 μM with activities determined as residual activities—RA, which were calculated to% of inhibition, presented in Table 1 and Table 2. (% of inhibition = 100% − RA). All determinations were carried out in duplicates.

hTDO = molecular target: T2, hTDO (Homo sapiens, UniProt P48775); assay: hTDO inhibitory potency evaluation (fluorescence assay); format: biochemical
T2 construct: purchased Vinci-Biochem
T2 sequence (P48775 whole entry): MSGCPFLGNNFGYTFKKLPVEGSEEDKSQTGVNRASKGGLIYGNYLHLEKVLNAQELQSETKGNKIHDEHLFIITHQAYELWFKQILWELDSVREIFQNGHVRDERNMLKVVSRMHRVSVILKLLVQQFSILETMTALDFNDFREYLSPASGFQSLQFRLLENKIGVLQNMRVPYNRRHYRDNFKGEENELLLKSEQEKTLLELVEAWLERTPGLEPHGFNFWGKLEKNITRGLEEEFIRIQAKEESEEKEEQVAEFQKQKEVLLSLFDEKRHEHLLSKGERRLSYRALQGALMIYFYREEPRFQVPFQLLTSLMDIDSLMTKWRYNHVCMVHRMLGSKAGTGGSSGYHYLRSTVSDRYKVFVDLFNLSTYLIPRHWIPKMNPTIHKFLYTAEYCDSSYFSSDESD
Protocol: as §1
The activity of the compounds on hTDO was determined according to the previously reported fluorescence protocol for hIDO1 [25] and reported absorbance protocols for hTDO [30] with several modifications. Recombinant hTDO was purchased from Vinci-Biochem (Vinci-Biochem, Vinci, Italy), bovine catalase was purchased from Sigma-Aldrich (Sigma-Aldrich, St. Louis, MO, USA). Prior to the measurement of activity for compounds, the enzyme activity was determined, and optimal assay enzyme concentration was selected. The amounts of reagents needed to perform the assay were optimized. Briefly, the reagents needed were dissolved in 50 mM potassium phosphate buffer (pH 7.0, 0.01%, v/v Tween 20), the reaction was performed in black 384-well microplates. After the addition of 1 μL of 100 mM sodium ascorbate neutralized with equimolar amount of 1 M NaOH, 1 μL of 100 μM methylene blue, 1 μL of 1 mg/mL bovine catalase, 0.5 μL of DMSO (negative control) or solution of a compound, 5 μL of 300 nM hTDO and 1.5 μL of 3.3 mM L-Trp were added and the microplate was incubated for 60 min at 37 °C. The reaction was quenched with the addition of 10 μL of 400 mM piperidine solution in MilliQ water and the formation of the examined fluorophore began following incubation at 65 °C for 20 min. The production of NFK-derived fluorophore (λEX = 400 nm, λEM = 500 nm) was measured using a microplate reader (Synergy H4; BioTek Instruments, Inc., Winooski, VT, USA) after 60 min post-incubation at room temperature. In the preliminary testing compounds were tested at 100 μM with activities determined as residual activities—RA, which were calculated to% of inhibition, presented in Table 1 and Table 2 (% of inhibition = 100% − RA). All determinations were carried out in duplicates.

IDO1 = IDO1 (Homo sapiens, UniProt P14902); assay: hIDO1 inhibitory potency evaluation (fluorescence assay, NFK-derived fluorophore); format: biochemical; design: gene encoding human IDO1 residues 6-403 His-tagged at the N-terminus; His tag (N); made in house; host or cells: Escherichia coli NiCo21
Chain of IDO1 (P14902 6-403): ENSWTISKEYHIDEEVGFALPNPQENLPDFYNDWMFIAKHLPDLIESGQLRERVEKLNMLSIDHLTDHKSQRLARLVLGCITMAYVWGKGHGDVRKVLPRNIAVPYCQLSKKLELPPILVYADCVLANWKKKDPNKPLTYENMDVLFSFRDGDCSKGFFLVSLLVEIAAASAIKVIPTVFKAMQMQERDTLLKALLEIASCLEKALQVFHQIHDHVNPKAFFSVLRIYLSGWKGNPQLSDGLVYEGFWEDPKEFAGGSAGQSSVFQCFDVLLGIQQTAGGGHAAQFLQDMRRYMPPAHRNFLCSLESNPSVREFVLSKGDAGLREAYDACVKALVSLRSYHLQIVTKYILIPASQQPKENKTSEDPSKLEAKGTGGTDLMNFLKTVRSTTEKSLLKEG

In the case of `O=C(Cn1cnc2onc(-c3ccc(F)cc3)c2c1=O)Nc1ccc(C(F)(F)F)cc1` [Compound 23], the “hIDO2 inhibition (in words)” value (hIDO2) is reported as “no activity”, the “hTDO inhibition (in words)” value (hTDO) is reported as “no activity” and the melting point is reported as 225 to 227 °C. For the same compound, the “hIDO1 inhibition (in words)” value (IDO1) was “low micromolar range” and the IC50 (IDO1; recombinant hIDO1, mean ± SD of at least two independent determinations, read-out: IDO1 IC50) was 23 µM.
